# Measured values taken from patent US20240189328A1, “COMBINATION OF NOREPINEPHRINE REUPTAKE INHIBITOR AND A C[…] USE IN TREATING SLEEP APNEA” (APNIMED, INC. (DELAWARE), priority 2021, published 2024).
# Tested on: participants with moderate to severe OSA
# Assay: Open-label 4-period dose-escalation study of dronabinol+atomoxetine, polysomnography (Example 3)
# Assay type: in vivo, human
# Conditions: atomoxetine 80 mg alone, week 1 PSG, compared to baseline
# Excerpt: This study is designed to assess the safety and efficacy for OSA of three escalating dose combinations of atomoxetine with dronabinol, compared to baseline and to atomoxetine alone.
# The present study (SEED) is an open-label, 4 consecutive period dose-escalation study of combinations of atomoxetine and dronabinol in participants with moderate to severe OSA. Participants will undergo initial pre-screening to determine potential study eligibility. […] Only participants who meet all non-PSG enrollment criteria at Visit 1 are eligible for a screening PSG. On a case by case basis and with agreement of the Sponsor a PSG conducted at the site within 3 months may be used instead of the Screening PSG.
# Participants who meet all enrollment criteria will receive an escalating dose of atomoxetine the first week: 3 days of atomoxetine 40 mg followed by 4 days of atomoxetine 80 mg. Participants will then receive escalating dose combinations of atomoxetine and dronabinol for the next 3 weeks. The weekly dose schedule is as follows: • Week 1: atomoxetine 40 mg×3 days, then 80 mg×4 days • Week 2: atomoxetine 40 mg/dronabinol 2.5 mg • Week 3: atomoxetine 80 mg/dronabinol 5 mg • Week 4: atomoxetine 80 mg/dronabinol 10 mg […]
smiles,measurement,value
"CNCCC(Oc1ccccc1C)c1ccccc1 (single isomer, unassigned; (-)) [Ato 80 mg, (−)-N-Methyl-3-phenyl-3-(o-tolyloxy)-propylamine]",Hypoxic burden (HB4),significantly reduced
